Measured values published in patent US8278304B2, “Substituted 4-hydroxypyrimidine-5-carboxamides” (Merck Sharp & Dohme Corp., priority 2008, dated 2012).
Counter-ions that a name gives are not always drawn.

The compounds below were run against T1, PHD2 (Homo sapiens, UniProt Q9GZT9) (assay: PHD2 / HIF-1α peptide hydroxylation assay, time resolved fluorescence (VHL complex detection)). Conditions: FLAG-tagged full length PHD2; 0.2 μM 2-oxoglutarate, 0.5 μM HIF-1α peptide; read-out: PHD2 Activity (PHD2 binding activity expressed as IC50 (nM)).
T1 construct: FLAG-tagged full length PHD2 expressed in and purified from baculovirus-infected Sf9 cells; FLAG; made in house; host or cells: baculovirus-infected Sf9 cells
Format: biochemical
Procedure: To each well of a 96-well plate was added 1 μL of test compound in DMSO and 20 μl of assay buffer (50 mM Tris pH 7.4/0.01% Tween-20/0.1 mg/ml bovine serum albumin/10 μM ferrous sulfate/1 mM sodium ascorbate/20 μg/ml catalase) containing 0.15 μg/ml FLAG-tagged full length PHD2 expressed in and purified from baculovirus-infected Sf9 cells. After a 30 min preincubation at room temperature, the enzymatic reactions were initiated by the addition of 4 μL of substrates (final concentrations of 0.2 μM 2-oxoglutarate and 0.5 μM HIF-1α peptide biotinyl-[…]).

T1 sequence (Q9GZT9 whole entry): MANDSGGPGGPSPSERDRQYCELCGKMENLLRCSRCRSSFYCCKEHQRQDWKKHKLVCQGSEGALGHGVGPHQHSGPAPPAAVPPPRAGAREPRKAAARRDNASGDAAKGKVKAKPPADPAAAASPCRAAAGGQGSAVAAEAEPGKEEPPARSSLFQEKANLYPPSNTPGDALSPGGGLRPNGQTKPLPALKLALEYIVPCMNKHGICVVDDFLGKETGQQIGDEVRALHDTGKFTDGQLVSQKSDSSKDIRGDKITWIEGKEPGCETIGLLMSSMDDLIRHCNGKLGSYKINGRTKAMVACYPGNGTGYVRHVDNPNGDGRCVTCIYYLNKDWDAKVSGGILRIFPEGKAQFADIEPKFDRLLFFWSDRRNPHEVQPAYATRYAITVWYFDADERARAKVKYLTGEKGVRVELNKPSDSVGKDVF

IC50 [nM]	SMILES
≤ 10	COc1ccc(C(NC(=O)c2cnc(-c3cccnn3)nc2O)c2nc3ccccc3s2)cc1 (stereo not shown) [Example 173, N-[1,3-benzothiazol-2-yl(4-methoxyphenyl)methyl]-4-hydroxy-2-(pyridazin-3-yl)pyrimidine-5-carboxamide]
≤ 10	CC(C)(NC(=O)c1cnc(-n2cccn2)nc1O)C(=O)N1CCc2ccccc21 [Example 189, N-[1-(2,3-dihydro-1H-indol-1-yl)-2-methyl-1-oxopropan-2-yl]-4-hydroxy-2-(1H-pyrazol-1-yl)pyrimidine-5-carboxamide]
100 to 1000	CC(C)(NC(=O)c1cnc(-n2cccn2)nc1O)C(=O)O [Example 188, N-{[4-hydroxy-2-(1H-pyrazol-1-yl)pyrimidin-5-yl]carbonyl}-2-methylalanine]
≤ 10	O=C(N[C@H](c1ccccc1)[C@H](O)c1ccccc1)c1cnc(-n2cccn2)nc1O [Example 127, 4-hydroxy-N-[(1R,2R)-2-hydroxy-1,2-diphenylethyl]-2-(1H-pyrazol-1-yl)pyrimidine-5-carboxamide]
100 to 1000	Cc1nc(-c2ncc(C(=O)NCc3ccc(OC(F)(F)F)cc3)c(O)n2)cs1 [Example 31, 4-Hydroxy-2-(2-methyl-1,3-thiazol-4-yl)-N-[4-(trifluoromethoxy)benzyl]pyrimidine-5-carboxamide]
≤ 10	O=C(NC(c1ccccc1)c1ccccn1)c1cnc(-n2cccn2)nc1O (stereo not shown) [Example 125, 4-hydroxy-N-[phenyl(pyridin-2-yl)methyl]-2-(1H-pyrazol-1-yl)pyrimidine-5-carboxamide trifluoroacetate (salt)]
≤ 10	O=C(NCc1ccc(-c2ccc(F)cc2)cc1)c1cnc(-n2cccn2)nc1O [Example 63, N-[(4′-fluorobiphenyl-4-yl)methyl]-4-hydroxy-2-(1H-pyrazol-1-yl)pyrimidine-5-carboxamide]
10 to 100	O=C(NCc1cccc2ccccc12)c1cnc(-n2cccn2)nc1O [Example 56, 4-Hydroxy-N-(1-naphthylmethyl)-2-(1H-pyrazol-1-yl)pyrimidine-5-carboxamide]
100 to 1000	Cc1cccc(-c2ncc(C(=O)NCc3ccc(Cl)cc3Cl)c(O)n2)n1 [Example 17, N-(2,4-dichlorobenzyl)-4-hydroxy-2-(6-methylpyridin-2-yl)pyrimidine-5-carboxamide]
10 to 100	COc1ccc(CC(NC(=O)c2cnc(-c3cccnn3)nc2O)c2ccc(C#N)cc2)cc1 (single isomer, unassigned) [Example 160, N-[1-(4-cyanophenyl)-2-(4-methoxyphenyl)ethyl]-4-hydroxy-2-(pyridazin-3-yl)pyrimidine-5-carboxamide]
≤ 10	CC(C)(O)[C@H](NC(=O)c1cnc(-n2cccn2)nc1O)c1ccccc1 [Example 128, 4-hydroxy-N-[(1R)-2-hydroxy-2-methyl-1-phenylpropyl]-2-(1H-pyrazol-1-yl)pyrimidine-5-carboxamide]
10 to 100	CC(C)(C)C1CCC(NC(=O)c2cnc(-n3cccn3)nc2O)CC1 (stereo not shown) [Example 82, N-(4-tert-butylcyclohexyl)-4-hydroxy-2-(1H-pyrazol-1-yl)pyrimidine-5-carboxamide]
≤ 10	O=C(NCc1cccc(-c2ccccc2)c1)c1cnc(-n2cccn2)nc1O [Example 53, N-(biphenyl-3-ylmethyl)-4-hydroxy-2-(1H-pyrazol-1-yl)pyrimidine-5-carboxamide]
100 to 1000	CC[C@H](NC(=O)c1cnc(-c2nc(C)cs2)nc1O)c1ccccc1 [Example 41, 4-Hydroxy-2-(4-methyl-1,3-thiazol-2-yl)-N-[(1S)-1-phenylpropyl]pyrimidine-5-carboxamide]
≤ 10	O=C(NC(c1ccccc1)c1ccccn1)c1cnc(-c2cccnn2)nc1O (stereo not shown) [Example 136, 4-hydroxy-N-[phenyl(pyridin-2-yl)methyl]-2-pyridazin-3-ylpyrimidine-5-carboxamide trifluoroacetate (salt)]
10 to 100	O=C(NCc1ccc(C(F)(F)F)cc1)c1cnc(-c2cnccn2)nc1O [Example 20, 4-Hydroxy-2-pyrazin-2-yl-N-[4-(trifluoromethyl)benzyl]pyrimidine-5-carboxamide]
